# Results published in PubChem BioAssay AID488827 (NMMLSC, 2010).
# Active and inactive are the calls of the source.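 Rule for the calls: active = EC50 at or below 33 µM; inactive = the rest.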
# System: S. cerevisiae CIT2-GFP strain, flow cytometry GFP, 3 h
# Experiment: CIT2-GFP expression modulators in yeast, SAR follow-up, flow cytometry, KU analogs, dose response (AID 488827)
row,Structure (SMILES),EC50
1,CC(C)(C)C(=O)NC(=S)NNC(=O)c1ccc(-c2ccccc2)cc1,66.9 µM (inactive)
2,Nc1nc(NCCc2ccccc2)nc(Nc2cccc(F)c2)c1[N+](=O)[O-],93.3 µM (inactive)
3,CSC1=NS(=O)(=O)c2c(C)nn(C)c2S1,294 µM (inactive)
4,CNc1nc(N)c([N+](=O)[O-])c(Nc2ccccc2OC)n1,3.99 µM
5,Nc1nc(Nc2ccccc2)nc(Nc2cccc(F)c2)c1[N+](=O)[O-],61.4 µM (inactive)
6,CCOC(=O)CCS(=O)(=O)c1nc(-c2ccccc2)cc(C(F)(F)F)n1,107 µM (inactive)
7,Cc1ccc(/C=C2/C(=O)ON=C2c2ccccc2)o1,39.6 µM (inactive)
8,CNc1nc(N)c([N+](=O)[O-])c(Nc2cccc(F)c2)n1,2.52 µM
9,O=S(=O)(CCN(CCS(=O)(=O)C(F)(F)F)CC1CCCO1)C(F)(F)F (configuration not stated),65.2 µM (inactive)
10,CNc1nc(N)c([N+](=O)[O-])c(Nc2ccc(F)cc2)n1,56.3 µM (inactive)
11,CNc1nc(N)c([N+](=O)[O-])c(Nc2ccccc2)n1,19.1 µM
12,CCOC(=O)CS(=O)(=O)c1nc(-c2ccccc2)cc(C(F)(F)F)n1,109 µM (inactive)
13,CN(C)CCCNc1nc(N)c([N+](=O)[O-])c(Nc2cccc(F)c2)n1,279 µM (inactive)
14,Nc1nc(Nc2cccc(F)c2)nc(Nc2cccc(F)c2)c1[N+](=O)[O-],36.6 µM (inactive)

# More lines, now with the values ahead:
row,EC50,Structure (SMILES)
1,188 µM (inactive),O=C1ON=C(c2ccccc2)/C1=C\c1ccco1
2,166 µM (inactive),Oc1c(I)cc(I)c2cccnc12
3,81.1 µM (inactive),Clc1ccc(N=c2ssnc2Cl)cc1
4,251 µM (inactive),O=C(Oc1c(Cl)cc(Cl)c2cccnc12)c1cccc([N+](=O)[O-])c1
5,3.75 µM,CNc1nc(N)c([N+](=O)[O-])c(NC2CCCCC2)n1
6,33 µM (inactive),O=[N+]([O-])c1cc(Cl)c2cccnc2c1O
7,1.07 µM,CNc1nc(N)c([N+](=O)[O-])c(Nc2cccc(Cl)c2)n1
8,298 µM (inactive),O=C(Oc1ccnc2cc(Cl)ccc12)N1CCCCCC1
9,60.6 µM (inactive),O=C(Nc1nc(-c2ccccn2)cs1)c1cc2ccccc2o1
10,71 µM (inactive),C/C(=N\NC(=O)c1ccc(C(C)(C)C)cc1)c1ccccn1
11,45.9 µM (inactive),Cc1ccc(C(c2cc(Cl)c3cccnc3c2O)N2CCN(C)CC2)cc1 (configuration not stated)
12,> 300 µM (inactive),COc1ccc([N+](=O)[O-])c(S(=O)(=O)c2ccccc2)n1
13,124 µM (inactive),COc1ccc([N+](=O)[O-])c(S(=O)(=O)c2ccc(Cl)cc2)n1
14,120 µM (inactive),CCOC(=O)CSC1=NC(=O)/C(=C\c2ccc(Cl)cc2)S1
15,191 µM (inactive),Cc1ccc(S(=O)(=O)c2ncccc2[N+](=O)[O-])cc1
16,87.1 µM (inactive),CN1CCN(C(c2ccc(C(F)(F)F)cc2)c2ccc3cccnc3c2O)CC1 (configuration not stated)
17,87.4 µM (inactive),O=C(Oc1c(Cl)cc(Cl)c2cccnc12)c1ccco1
18,161 µM (inactive),Cc1c(C(=O)Nc2nc(-c3ccccn3)cs2)oc2ccccc12
